According to patent US10538555B2, “Macrocyclic inhibitors of the PD-1/PD-L1 and CD80(B7-1)/PD-L1 protein/protein interactions” (BRISTOL-MYERS SQUIBB COMPANY, priority 2014, dated 2020):
*1 amine or outer side, *2 acyl side, *3 side chain or, on linkers, in order; H or OH if unused. Where a SMILES comes first, the peptide text is derived from it. Bridges are numbered along the chain shown (N, C = ends). [ ]: non-standard residue; d: D form. ξ: configuration not given here. Trp(1-CH2COOH) = N[C@@H](Cc1cn(CC(=O)O)c2ccccc12)C(=O)O; Phe(3,4,5-F3) = N[C@@H](Cc1cc(F)c(F)c(F)c1)C(=O)O; Phe(3,4-F2) = N[C@@H](Cc1ccc(F)c(F)c1)C(=O)O; NMePhe(4-F) = CN[C@@H](Cc1ccc(F)cc1)C(=O)O; d(cisHyp) = O=C(O)[C@H]1C[C@@H](O)CN1; NMe3Pal = CN[C@@H](Cc1cccnc1)C(=O)O; NMeY = CN[C@@H](Cc1ccc(O)cc1)C(=O)O; Hyp = O=C(O)[C@@H]1C[C@@H](O)CN1; NMeF = CN[C@@H](Cc1ccccc1)C(=O)O; X1 = O=C([C@H]1COCCN1[*:1])[*:2]; dHyp = O=C(O)[C@H]1C[C@H](O)CN1; NMeNle = CCCC[C@H](NC)C(=O)O; dNle = CCCC[C@@H](N)C(=O)O; dPip = O=C(O)[C@H]1CCCCN1; hSer = N[C@@H](CCO)C(=O)O; NMeA = CN[C@@H](C)C(=O)O; Orn = NCCC[C@H](N)C(=O)O; Dab = NCC[C@H](N)C(=O)O; Dap = NC[C@H](N)C(=O)O; ξC = NC(CS)C(=O)O; Sar = CNCC(=O)O

What follows are compounds tested against T1, Human PD-L1/PD-1 (Homo sapiens, UniProt Q9NZQ7) (assay: HTRF Human PD-L1/PD-1 binding assay (PD-1-Ig/PD-L1-His)). Conditions: PD-L1-His 10 nM, PD-1-Ig 20 nM; class symbol; read-out: HTRF Human PD-L1/PD-1 Binding Assay IC50 Range.
T1 construct: TVMV protease cleavage site (C); made in house; host or cells: HEK293T cells
Summary of the method: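 HTRF competition using HEK293T-expressed human PD-1(25-167)-Ig at 20 nM and PD-L1(18-239)-His at 10 nM, compound incubated first with PD-L1 for 15 min, then with PD-1 for 15 min. Signal read as 665/620 nm ratio 30 min after adding Eu anti-Ig and APC anti-His antibodies.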

T1 sequence (Q9NZQ7 with tags, fused parts or gaps): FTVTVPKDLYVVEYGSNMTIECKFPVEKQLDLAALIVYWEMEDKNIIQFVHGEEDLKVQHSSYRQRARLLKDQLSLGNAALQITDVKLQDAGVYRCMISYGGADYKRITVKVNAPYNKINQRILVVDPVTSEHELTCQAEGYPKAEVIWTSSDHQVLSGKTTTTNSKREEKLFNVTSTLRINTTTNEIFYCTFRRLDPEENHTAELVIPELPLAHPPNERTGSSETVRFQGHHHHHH

| IC50 [nM] | SMILES |
| --- | --- |
| 1 to 9.9 | CCCC[C@H]1C(=O)N2C[C@H](O)C[C@@H]2C(=O)N[C@@H](CC(=O)O)C(=O)N[C@@H](C(C)C)C(=O)N(C)[C@@H](Cc2ccccc2)C(=O)N[C@@H](CCC(=O)O)C(=O)N2CCOC[C@@H]2C(=O)N[C@@H](Cc2c[nH]c3ccccc23)C(=O)N[C@@H](Cc2ccc(O)cc2)C(=O)N[C@@H](CCOC)C(=O)N[C@H](C(=O)NCC(N)=O)CSCC(=O)N[C@@H](Cc2cc(F)c(F)c(F)c2)C(=O)N(C)[C@@H](Cc2ccccc2)C(=O)N1C [Example 10178] ({CH2CO}-[Phe(3,4,5-F3)][NMeF][NMeNle][d(cisHyp)]DV[NMeF]E[X1]WY[hSer](Me)CG-NH2; thioether N-13) |
| 10 to 99.9 | CCCC[C@H]1C(=O)N2C[C@H](O)C[C@@H]2C(=O)N[C@@H](CC(=O)O)C(=O)N[C@@H](C(C)C)C(=O)N(C)[C@@H](Cc2ccccc2)C(=O)N[C@@H](CC(=O)O)C(=O)N2C[C@H](O)C[C@@H]2C(=O)N[C@@H](Cc2c[nH]c3ccccc23)C(=O)N[C@@H](Cc2ccc(O)cc2)C(=O)N[C@@H](CCO)C(=O)N[C@H](C(=O)NCC(N)=O)CSCC(=O)N[C@@H](Cc2cc(F)c(F)c(F)c2)C(=O)N(C)[C@@H](Cc2ccccc2)C(=O)N1C [Example 10173] ({CH2CO}-[Phe(3,4,5-F3)][NMeF][NMeNle][d(cisHyp)]DV[NMeF]D[d(cisHyp)]WY[hSer]CG-NH2; thioether N-13) |
| 1 to 9.9 | CCCC[C@H]1C(=O)N2C[C@@H](O)C[C@@H]2C(=O)N[C@@H](CC(=O)O)C(=O)N[C@@H](C(C)C)C(=O)N(C)[C@@H](Cc2ccccc2)C(=O)N[C@@H](Cc2ccc(OC)cc2)C(=O)N2C[C@@H](O)C[C@@H]2C(=O)N[C@@H](Cc2c[nH]c3ccccc23)C(=O)N[C@@H](Cc2ccc(O)cc2)C(=O)N[C@@H](CC(C)C)C(=O)N[C@H](C(=O)NCC(N)=O)CSCC(=O)N[C@@H](Cc2ccc(F)c(F)c2)C(=O)N(C)[C@@H](Cc2ccccc2)C(=O)N1C [Example 9225] ({CH2CO}-[Phe(3,4-F2)][NMeF][NMeNle][dHyp]DV[NMeF]Y(Me)[dHyp]WYLCG-NH2; thioether N-13) |
| 10 to 99.9 | CCCC[C@H]1C(=O)N2CCC[C@@H]2C(=O)N[C@@H](CC(=O)O)C(=O)N[C@@H](C(C)C)C(=O)N(C)[C@@H](Cc2ccccc2)C(=O)N[C@@H](CCN)C(=O)N2CCOC[C@@H]2C(=O)N[C@@H](Cc2c[nH]c3ccccc23)C(=O)N[C@@H](Cc2ccc(O)cc2)C(=O)N[C@@H](CCC(N)=O)C(=O)N[C@H](C(=O)NCC(N)=O)CSCC(=O)N[C@@H](Cc2cc(F)c(F)c(F)c2)C(=O)N(C)[C@@H](Cc2ccc(O)cc2)C(=O)N1C [Example 10626] ({CH2CO}-[Phe(3,4,5-F3)][NMeY][NMeNle][dP]DV[NMeF][Dab][X1]WYQCG-NH2; thioether N-13) |
| 1 to 9.9 | CCCC[C@H]1C(=O)N2C[C@@H](O)C[C@@H]2C(=O)N[C@@H](CC(=O)O)C(=O)N[C@@H](C(C)C)C(=O)N(C)[C@@H](Cc2ccccc2)C(=O)N[C@@H](CCC(=O)O)C(=O)N2CCCC[C@@H]2C(=O)N[C@@H](Cc2c[nH]c3ccccc23)C(=O)N[C@@H](Cc2ccc(O)cc2)C(=O)N[C@@H](CC(C)C)C(=O)N[C@H](C(=O)NCC(N)=O)CSCC(=O)N[C@@H](Cc2cc(F)c(F)c(F)c2)C(=O)N(C)[C@@H](Cc2ccc(F)cc2)C(=O)N1C [Example 10556] ({CH2CO}-[Phe(3,4,5-F3)][NMePhe(4-F)][NMeNle][dHyp]DV[NMeF]E[dPip]WYLCG-NH2; thioether N-13) |
| 10 to 99.9 | CCCC[C@H]1C(=O)N(C)[C@@H](CCCC)C(=O)N[C@@H](CCC(=O)O)C(=O)N[C@H](C(=O)NCC(N)=O)CSCC(=O)N[C@@H](Cc2ccc(O)cc2)C(=O)N2C[C@H](O)C[C@H]2C(=O)N[C@@H](CC(N)=O)C(=O)N2CCC[C@H]2C(=O)N[C@@H](Cc2cnc[nH]2)C(=O)N[C@@H](CCC(=O)O)C(=O)N2C[C@H](O)C[C@H]2C(=O)N[C@@H](Cc2c[nH]c3ccccc23)C(=O)N[C@@H](CO)C(=O)N[C@@H](Cc2c[nH]c3ccccc23)C(=O)N1C [Example 1283] ({CH2CO}-Y[Hyp]NPHE[Hyp]WSW[NMeNle][NMeNle]ECG-NH2; thioether N-14) |
| 1 to 9.9 | CCCC[C@H]1C(=O)N2CCC[C@@H]2C(=O)N[C@@H](CCC(=O)O)C(=O)N[C@@H](C(C)C)C(=O)N(C)[C@@H](Cc2ccccc2)C(=O)N[C@@H](CC(=O)O)C(=O)N2CCCC[C@@H]2C(=O)N[C@@H](Cc2c[nH]c3ccccc23)C(=O)N[C@@H](Cc2ccc(O)cc2)C(=O)N[C@@H](CC(C)C)C(=O)N[C@H](C(=O)NCC(N)=O)CSCC(=O)N[C@@H](Cc2cc(F)c(F)c(F)c2)C(=O)N(C)[C@@H](Cc2ccc(F)cc2)C(=O)N1C [Example 10580] ({CH2CO}-[Phe(3,4,5-F3)][NMePhe(4-F)][NMeNle][dP]EV[NMeF]D[dPip]WYLCG-NH2; thioether N-13) |
| 10 to 99.9 | CCCC[C@H]1C(=O)N2CCC[C@@H]2C(=O)N[C@@H](CC(=O)O)C(=O)N[C@@H](C(C)C)C(=O)N(C)[C@@H](Cc2ccccc2)C(=O)N[C@@H](CCC(=O)O)C(=O)N2C[C@H](O)C[C@@H]2C(=O)N[C@@H](Cc2c[nH]c3ccccc23)C(=O)N[C@@H](Cc2ccc(O)cc2)C(=O)N[C@@H](CCC(=O)O)C(=O)N[C@H](C(=O)NCC(N)=O)CSCC(=O)N[C@@H](Cc2cc(F)c(F)c(F)c2)C(=O)N(C)[C@@H](Cc2ccc(O)cc2)C(=O)N1C [Example 10633] ({CH2CO}-[Phe(3,4,5-F3)][NMeY][NMeNle][dP]DV[NMeF]E[d(cisHyp)]WYECG-NH2; thioether N-13) |
| 10 to 99.9 | CCCC[C@H]1C(=O)N(C)CC(=O)N[C@@H](CC(N)=O)C(=O)N[C@@H](C(C)C)C(=O)N(C)[C@@H](Cc2ccccc2)C(=O)N[C@@H](Cc2ccc(O)cc2)C(=O)N(C)CC(=O)N[C@@H](Cc2c[nH]c3ccccc23)C(=O)N[C@@H](Cc2ccc(O)cc2)C(=O)N[C@@H](CCCN)C(=O)N[C@H](C(=O)NCC(N)=O)CSCC(=O)N[C@@H](Cc2ccccc2)C(=O)N(C)[C@@H](Cc2cccnc2)C(=O)N1C [Example 3614] ({CH2CO}-F[NMe3Pal][NMeNle][Sar]NV[NMeF]Y[Sar]WY[Orn]CG-NH2; thioether N-13) |

Further lines, the compound ahead of its results:

| SMILES | IC50 [nM] |
| --- | --- |
| CCCC[C@H]1C(=O)N(C)[C@@H](CCCC)C(=O)N[C@@H](CCC(=O)O)C(=O)NC(C(=O)NCC(N)=O)CSCC(=O)N[C@@H](Cc2ccc(O)cc2)C(=O)N(C)[C@@H](C)C(=O)N[C@@H](CC(N)=O)C(=O)N2CCC[C@H]2C(=O)N[C@@H](CC(N)=O)C(=O)N[C@@H](CC(C)C)C(=O)N2C[C@H](O)C[C@H]2C(=O)N[C@@H](Cc2c[nH]c3ccccc23)C(=O)N[C@@H](CCN)C(=O)N[C@@H](Cc2c[nH]c3ccccc23)C(=O)N1C (stereo partly drawn) [Example 9181] ({CH2CO}-Y[NMeA]NPNL[Hyp]W[Dab]W[NMeNle][NMeNle]E[ξC]G-NH2; thioether N-14) | 1 to 9.9 |
| CCCC[C@H]1C(=O)N(C)[C@@H](CCCC)C(=O)N[C@@H](CC(C)C)C(=O)N[C@H](C(=O)NCC(N)=O)CSCC(=O)N[C@@H](Cc2ccc(O)cc2)C(=O)N(C)[C@@H](C)C(=O)N[C@@H](CC(=O)O)C(=O)N2CCC[C@H]2C(=O)N[C@@H](CN)C(=O)N[C@@H](CC(C)C)C(=O)N2CCC[C@H]2C(=O)N[C@@H](Cc2c[nH]c3ccccc23)C(=O)N[C@@H](CCN)C(=O)N[C@@H](Cc2cn(CC(=O)O)c3ccccc23)C(=O)N1C [Example 6283] ({CH2CO}-Y[NMeA]DP[Dap]LPW[Dab][Trp(1-CH2COOH)][NMeNle][NMeNle]LCG-NH2; thioether N-14) | 1 to 9.9 |
| CCCC[C@H]1C(=O)N(C)[C@@H](CCCC)C(=O)N[C@@H](CC(C)C)C(=O)N[C@H](C(=O)NCC(N)=O)CSCC(=O)N[C@@H](Cc2ccc(O)cc2)C(=O)N(C)[C@@H](C)C(=O)N[C@@H](CC(=O)O)C(=O)N2CCC[C@H]2C(=O)N[C@@H](CN)C(=O)N[C@@H](CC(C)C)C(=O)N2C[C@H](O)C[C@H]2C(=O)N[C@@H](Cc2c[nH]c3ccccc23)C(=O)N[C@@H](CCN)C(=O)N[C@@H](Cc2cn(CC(=O)O)c3ccccc23)C(=O)N1C [Example 5171] ({CH2CO}-Y[NMeA]DP[Dap]L[Hyp]W[Dab][Trp(1-CH2COOH)][NMeNle][NMeNle]LCG-NH2; thioether N-14) | 1 to 9.9 |
| CCCC[C@H]1NC(=O)[C@H](Cc2c[nH]c3ccccc23)NC(=O)[C@H](CO)NC(=O)[C@H](Cc2c[nH]c3ccccc23)NC(=O)[C@@H]2C[C@@H](O)CN2C(=O)[C@H](CC(C)C)NC(=O)[C@H](Cc2cnc[nH]2)NC(=O)[C@@H]2CCCN2C(=O)[C@H](CC(=O)O)NC(=O)[C@H](C)N(C)C(=O)[C@H](Cc2ccc(O)cc2)NC(=O)CSCC(C(=O)NCC(N)=O)NC(=O)[C@H](CCC(=O)O)NC(=O)[C@H](CCCC)N(C)C1=O (stereo partly drawn) [Example 10132] ({CH2CO}-Y[NMeA]DPHL[Hyp]WSW[dNle][NMeNle]E[ξC]G-NH2; thioether N-14) | 100 to 990 |
| CCCC[C@H]1C(=O)N(C)[C@@H](CCCC)C(=O)N[C@@H](CCC(=O)O)C(=O)N[C@H](C(=O)NCC(N)=O)CSCC(=O)N[C@@H](Cc2ccc(OC)cc2)C(=O)N(C)[C@@H](C)C(=O)N[C@@H](CCN)C(=O)N2CCC[C@H]2C(=O)N[C@@H](Cc2cnc[nH]2)C(=O)N[C@@H](CCC(=O)O)C(=O)N2C[C@H](O)C[C@H]2C(=O)N[C@@H](Cc2c[nH]c3ccccc23)C(=O)N[C@@H](CCN)C(=O)N[C@@H](Cc2c[nH]c3ccccc23)C(=O)N1C [Example 7111] ({CH2CO}-Y(Me)[NMeA][Dab]PHE[Hyp]W[Dab]W[NMeNle][NMeNle]ECG-NH2; thioether N-14) | 1 to 9.9 |
| CCCC[C@H]1C(=O)N(C)[C@@H](CCCC)C(=O)N[C@@H](CCCN)C(=O)N[C@H](C(=O)NCC(N)=O)CSCC(=O)N[C@@H](Cc2ccc(OC)cc2)C(=O)N(C)[C@@H](C)C(=O)N[C@@H](CC(=O)O)C(=O)N2CCC[C@H]2C(=O)N[C@@H](Cc2cnc[nH]2)C(=O)N[C@@H](CCC(=O)O)C(=O)N2C[C@H](O)C[C@H]2C(=O)N[C@@H](Cc2c[nH]c3ccccc23)C(=O)N[C@@H](CC(=O)O)C(=O)N[C@@H](Cc2c[nH]c3ccccc23)C(=O)N1C [Example 7099] ({CH2CO}-Y(Me)[NMeA]DPHE[Hyp]WDW[NMeNle][NMeNle][Orn]CG-NH2; thioether N-14) | 10 to 99.9 |
